Values of other authors in EP0985412B1, “Cyclosporin compositions” (Panacea Biotec Limited, priority 1998, dated 2000).

System: normal epithelial tissue and Peyer's patch tissue of guinea pigs

absorption raised by a factor: 5-6
Substance: Choleic acid
